Among the data in PMC2574679 (Journal of the American Chemical Society, 2008) are IC50 values, retold here.

Structures are written as SMILES.

The target of the test is Bcl-XL (Homo sapiens, UniProt Q07817). Format: binding.
Bcl-XL, sequence (Q07817 whole entry): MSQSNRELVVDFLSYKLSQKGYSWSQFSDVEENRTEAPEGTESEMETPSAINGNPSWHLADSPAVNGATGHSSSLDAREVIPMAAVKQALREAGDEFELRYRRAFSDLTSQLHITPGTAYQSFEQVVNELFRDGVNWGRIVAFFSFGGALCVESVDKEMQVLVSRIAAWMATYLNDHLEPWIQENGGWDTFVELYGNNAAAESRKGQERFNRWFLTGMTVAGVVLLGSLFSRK

In the case of `CC1(C)CCN(c2ccc(C(=O)NS(=O)(=O)c3ccc(NCCSc4ccccc4)c([N+](=O)[O-])c3)cc2)CC1` [SZ4TA2], 0.0788 µM corresponded to half-maximal inhibition (IC50).
